Measured values from a melting point compilation (Tetko et al.; mined from patent text by program, amines drawn as free bases though some values may be those of a salt).

Row | Structure (SMILES) | melting point [°C]
1 | CNC(=O)N1N=C(c2ccc(NC(C)=O)cc2)c2cc3c(cc2CC1C)OCO3 (stereo unspecified) | 150 to 152
2 | Cc1nn(CCO)c(C)c1Sc1cc(Cl)cc(Cl)c1 | 118 to 120
3 | NS(=O)(=O)c1cc2c(s1)CCC(O)C2 (stereo unspecified) | 176 to 179
4 | C=C(C)COc1ccc(F)cc1CN(CC)c1ccc(C(=O)O)nn1 | 121 to 122
5 | CNc1nc(C)c(-c2cn3ccccc3n2)s1 | 228 to 229
6 | CC1(COC2CC3C4CCC5=CC(=O)CCC5(C)C4(F)C(O)CC3(C)C2(O)C(=O)CO)CO1 (stereo unspecified) | 223 to 227
7 | CCOP(=O)(CCN1CCNc2c1c(=O)c2=O)OCC | 115 to 116
8 | N#Cc1c(N2CCN(C(=O)c3ccco3)CC2)c2cc(F)cnc2n(Cc2ccccc2)c1=O | 216
9 | CC(C)(SCc1ccccn1)C(NS(=O)(=O)c1ccc(Oc2ccc(-c3ccoc3)cc2)cc1)C(=O)O (stereo unspecified) | 185 to 189
10 | CC(C)CNn1c(=O)c(Oc2ccc(F)cc2F)cc2cnc(SCc3ccccc3)nc21 | 132 to 134
11 | CSc1ccc(C2=C(c3ccc(C)cc3)CCC2)cc1 | 64.5 to 66.5
12 | NC(=O)c1snc(-c2cccc(C(F)(F)F)c2)c1N | 124
13 | COc1ccc2cc(C(N)=O)ccc2n1 | 212 to 214
14 | COc1ccc(CNc2nc(N)c(C(=O)c3cc(C)sc3C)s2)cc1 | 175
15 | Cc1sc2cc(O)ccc2c1C1=C(c2c(C)sc3cc(O)ccc23)C(F)(F)C(F)(F)C1(F)F | 236 to 237
16 | CCOC(=O)c1cnc(Oc2cc(OCCOC)ccc2CCCOC(=O)NCC2CC2)c(Cl)c1 | 94.6 to 94.8
17 | O=c1cc(-c2ccc(O)nc2)oc2ccccc12 | 296 to 297
18 | COc1cccc(S(=O)(=O)N2CCc3cc(O)c(OC)cc3C2)c1 | 168 to 170
19 | COC(=O)COc1ccc([N+](=O)[O-])c(F)c1 | 93 to 94
20 | CCC1c2cccn2-c2ccc(F)cc2N1C(=O)c1cccc(OC)c1 (stereo unspecified) | 70 to 74

Results, then the compound that gave them:

Row | melting point [°C] | Structure (SMILES)
21 | 192 to 194 | Cc1nc2c(O)c(CCC(=O)c3ccccc3)c(C(=O)N(C)C)cc2n1COCC[Si](C)(C)C
22 | 226 to 228 | CCOC(=O)c1cc2c(cn1)[nH]c1ccc(N)cc12
23 | 126 to 128 | Nc1ccc(OCc2ccc3ccccc3n2)cc1
24 | 113 to 114 | CCOC(=O)C1=C(C)N(C(C)=O)C(c2csc(C)n2)=NC1c1cccc(C)c1 (stereo unspecified)
25 | 210 to 215 | O=C(O)c1cc(S(=O)(=O)Cl)cc2c1OCCO2
26 | 165 | COc1ccc(N2CCOCC2)c2sc(C(=O)NCC(=O)Cc3cccs3)nc12
27 | 164 | O=C1CCCc2nc3ccccc3c(NCc3ccccc3F)c21
28 | 137 to 139 | COC(=O)c1ccc(NC(=O)CSC(C)=O)cc1
29 | 118 to 120 | COC(=N)Nc1nc(Cl)cc(OC)n1
30 | 115 | COc1cccc2c1CC(N(CCCc1c[nH]c3ccc(F)cc13)C1CC1)CO2 (stereo unspecified)
31 | 124 to 127 | CNC(=O)OC(C(Oc1ccc(Cl)cc1Cl)n1cncn1)C(C)(C)CF (stereo unspecified)
32 | 155 to 156 | CCC(NC(=NC#N)Nc1cccnc1)c1ccccc1 (stereo unspecified)
33 | 76.5 to 78.2 | C#CC1C2=C(c3ccc(OCc4ccccc4)cc3N1C(=O)Oc1ccccc1)C(O[Si](C)(C)C(C)(C)C)CCC2 (stereo unspecified)
34 | 96 to 97 | COC(=O)c1cc(-c2ccc(F)cc2)oc1C
35 | 153 to 155 | Cc1noc(NS(=O)(=O)c2cc(Br)c(Br)s2)c1Br
36 | 194 to 197 | O=C(c1cccc2cc[nH]c12)N1CCN(c2ncccn2)CC1
37 | 193 to 195 | CCn1nc(O)nc1S
38 | 295 to 297 | COc1ccccc1-c1nc2ccc(C(=O)O)cc2c(=O)[nH]1
39 | 239 to 240 | COc1cc2[nH]c(C(=O)O)cc2cc1F
40 | 180 to 181 | CCCCNC(=O)NS(=O)(=O)c1c(C(=O)OCC)cnn1-c1ccccn1
41 | 236 to 238 | O=C1C2=C(CCCC2)C(=O)N1c1ccc(Cl)c(O)c1
